# Laboratory results: patent US10457637B2, “Benzenesulfonamide derivatives as inverse agonists of retinoid-related orphan receptor gamma (RORγ(T))” (GALDERMA RESEARCH & DEVELOPMENT, priority 2014, dated 2019)
# Target: ROR gamma ligand-binding domain (hRORg) (Homo sapiens (Human), UniProt P51449)
# Assay: GAL4-RORγ transactivation (luciferase reporter, HG5LN HeLa line)
# Assay type: cell-based
# Details: 18 hours incubation
# From the text: GAL4-RORγ Transactivation
# The RORγ transactivation model was developed from the line HG5LN, which is a HeLa line that stably expresses a luciferase reporter gene controlled by a pentamer of the GAL4 recognition domain of yeast and of a β-globin promoter. The HG5LN line was stably transfected by the DNA-binding domain (DBD) of GAL4 fused to the ROR gamma ligand-binding domain (LBD). Molecules that inhibit the ROR gamma constitutive activity reduce the luciferase expression, thus leading to a reduction in the emitted luminescence.
# The cells are seeded in 384-well plates (5000 cells in 45 μL/well of culture medium containing 10% fetal calf serum) and incubated for 4 hours at 37° C., 5% CO2. 5 μL of the test molecules (compounds described in the tables described above) are then added to each well and the plates are incubated for 18 hours at a temperature of 37° C. under 5% of CO2. 20 μL of luciferase substrate (Promega) are added to each well and the luminescence emitted is read by a microplate reader.
# The luminescence units (“RLU”) are normalized by positive controls (“POS” containing a saturated concentration of benzenesulfonamide, N-(2,2,2-trifluoroethyl)-N-[4-[2,2,2-trifluoro-1-hydroxy-1-(trifluoromethyl)ethyl]phenyl]) and negative controls (“NEG” containing DMSO): % inhibition=((RLU−NEG)*100)/(POS−NEG). The IC50 values are calculated from a 4-parameter logistic model using the XLFit software (IDBS).
# ROR gamma ligand-binding domain (hRORg), sequence (P51449 269-508): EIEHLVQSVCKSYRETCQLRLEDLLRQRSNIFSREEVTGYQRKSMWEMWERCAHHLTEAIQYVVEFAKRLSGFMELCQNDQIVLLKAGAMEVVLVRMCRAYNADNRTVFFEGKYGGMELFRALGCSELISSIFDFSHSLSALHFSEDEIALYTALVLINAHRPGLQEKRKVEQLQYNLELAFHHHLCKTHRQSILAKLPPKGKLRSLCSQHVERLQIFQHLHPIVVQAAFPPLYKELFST
row,IC50 [µM],SMILES
1,> 1,"CCc1ccc(N(CC(C)C)S(=O)(=O)c2ccc(NCC3CCN(C(C)=O)C3)c(S(C)(=N)=O)c2)cc1 (stereo not drawn) [compound 100, 4-(((1-acetylpyrrolidin-3-yl)methyl)amino)-N-(4-ethylphenyl)-N-isobutyl-3-(S-methylsulfonimidoyl)benzenesulfonamide]"
2,> 1,"CCc1ccc(N(CC(C)C)S(=O)(=O)c2ccc(N3CC4(CNC4)C3)c(S(C)(=N)=O)c2)cc1 (stereo not drawn) [compound 121, -(4-ethylphenyl)-N-isobutyl-3-(S-methylsulfonimidoyl)-4-(2,6-diazaspiro[3.3]heptan-2-yl)benzenesulfonamide]"
3,> 1,"CCc1ccc(N(CC(C)C)S(=O)(=O)c2ccc(N3CCNCC3)c(S(C)(=N)=O)c2)cc1 (stereo not drawn) [compound 140, N-(4-ethylphenyl)-N-isobutyl-3-(S-methylsulfonimidoyl)-4-(piperazin-1-yl)benzenesulfonamide]"
4,> 1,"CCc1ccc(N(CC(C)C)S(=O)(=O)c2ccc(S(=N)(=O)CC3CCOCC3)cc2)cc1 (stereo not drawn) [compound 28, N-(4-ethylphenyl)-N-isobutyl-4-(tetrahydropyran-4-ylmethanesulfoximimyl)benzenesulfonamide]"
5,> 1,"CCc1ccc(N(CC(C)C)S(=O)(=O)c2ccc(OC3CCN(C(=O)OC(C)(C)C)CC3)c(S(C)(=N)=O)c2)cc1 (stereo not drawn) [compound 33, tert-butyl 4-(4-(N-(4-ethylphenyl)-N-isobutylsulfamoyl)-2-(S-methylsulfonimidoyl)phenoxy)piperidine-1-carboxylate]"
6,> 1,"CCc1ccc(N(CC(C)C)S(=O)(=O)c2ccc(OCCc3ccno3)c(S(C)(=N)=O)c2)cc1 (stereo not drawn) [compound 38, N-(4-ethylphenyl)-N-isobutyl-4-(2-(isoxazol-5-yl)ethoxy)-3-(S-methylsulfonimidoyl)benzenesulfonamide]"
7,0.1 to 1,"CCc1ccc(N(CC(C)C)S(=O)(=O)c2ccc(NCC3CNC(=O)O3)c(S(C)(=N)=O)c2)cc1 (stereo not drawn) [compound 82, N-(4-ethylphenyl)-N-isobutyl-3-(S-methylsulfonimidoyl)-4-(((2-oxooxazolidin-5-yl)methyl)amino)benzenesulfonamide]"
8,< 0.1,"CCc1ccc(N(CC(C)C)S(=O)(=O)c2ccc(OCC3C4COCC43)c(S(C)(=N)=O)c2)cc1 (stereo not drawn) [compound 31, 4-((3-oxabicyclo[3.1.0]hexan-6-yl)methoxy)-N-(4-ethylphenyl)-N-isobutyl-3-(S-methylsulfonimidoyl)benzenesulfonamide]"
9,> 1,"CCc1ccc(N(CC(C)C)S(=O)(=O)c2ccc(NCc3nonc3C)c(S(C)(=N)=O)c2)cc1 (stereo not drawn) [compound 88, N-(4-ethylphenyl)-N-isobutyl-4-(((4-methyl-1,2,5-oxadiazol-3-yl)methyl)amino)-3-(S-methylsulfonimidoyl)benzenesulfonamide]"
10,> 1,"CCc1ccc(N(CC(C)C)S(=O)(=O)c2ccc(OCC3(C)COC3)c(S(C)(=N)=O)c2)cc1 (stereo not drawn) [compound 34, N-(4-ethylphenyl)-N-isobutyl-4-((3-methyloxetan-3-yl)methoxy)-3-(S-methylsulfonimidoyl)benzenesulfonamide]"
11,> 1,"CCc1ccc(N(CC(C)C)S(=O)(=O)c2ccc(OC[C@H]3CNC(=O)O3)c(S(C)(=N)=O)c2)cc1 (stereo partly drawn) [compound 79, N-(4-ethylphenyl)-N-isobutyl-3-(S-methylsulfonimidoyl)-4-(((R)-2-oxooxazolidin-5-yl)methoxy)benzenesulfonamide]"
12,> 1,"CCc1ccc(N(CC(C)C)S(=O)(=O)c2ccc(Oc3ccc(C#N)cc3)c(S(C)(=N)=O)c2)cc1 (stereo not drawn) [compound 80, 4-(4-cyanophenoxy)-N-(4-ethylphenyl)-N-isobutyl-3-(S-methylsulfonimidoyl)benzenesulfonamide]"
13,> 1,"CCc1ccc(N(CC(C)C)S(=O)(=O)c2ccc(NC3CCC(=O)NC3)c(S(C)(=N)=O)c2)cc1 (stereo not drawn) [compound 85, N-(4-ethylphenyl)-N-isobutyl-3-(S-methylsulfonimidoyl)-4-((6-oxopiperidin-3-yl)amino)benzenesulfonamide]"
14,> 1,"CCc1ccc(N(CC(C)C)S(=O)(=O)c2ccc(NCC3CCNC(=O)C3)c(S(C)(=N)=O)c2)cc1 (stereo not drawn) [compound 96, 4-N-(4-ethylphenyl)-N-isobutyl-3-(S-methylsulfonimidoyl)-4-(((2-oxopiperidin-4-yl)methyl)amino)benzenesulfonamide]"
15,> 1,"CCc1ccc(N(CC(C)C)S(=O)(=O)c2ccc(NC[C@@H]3CNC(=O)O3)c(S(C)(=N)=O)c2)cc1 (stereo partly drawn) [compound 105, N-(4-ethylphenyl)-N-isobutyl-3-(S-methylsulfonimidoyl)-4-((((R)-2-oxooxazolidin-5-yl)methyl)amino)benzenesulfonamide]"
16,> 1,"CCc1ccc(N(CC(C)C)S(=O)(=O)c2ccc(OCC(O)CO)c(S(C)(=N)=O)c2)cc1 (stereo not drawn) [compound 40, 4-(2,3-dihydroxypropoxy)-N-(4-ethylphenyl)-N-isobutyl-3-(S-methylsulfonimidoyl)benzenesulfonamide]"
17,> 1,"CCc1ccc(N(CC(C)C)S(=O)(=O)c2ccc(NC3CCS(=O)(=O)CC3)c(S(C)(=N)=O)c2)cc1 (stereo not drawn) [compound 83, 4-((1,1-dioxidotetrahydro-2H-thiopyran-4-yl)amino)-N-(4-ethylphenyl)-N-isobutyl-3-(S-methylsulfonimidoyl)benzenesulfonamide]"
18,> 1,"CCc1ccc(N(CC(C)C)S(=O)(=O)c2ccc3c(c2)NCCS3)cc1 [compound 9, 3,4-dihydro-2H-benzo[1,4]thiazine-6-sulfonic acid (4-ethylphenyl)isobutylamide]"
19,> 1,"CCc1ccc(N(CC(C)C)S(=O)(=O)c2ccc(NCC3CN(C(=O)OC)C3)c(S(C)(=N)=O)c2)cc1 (stereo not drawn) [compound 89, methyl 3-(((4-(N-(4-ethylphenyl)-N-isobutylsulfamoyl)-2-(S-methylsulfonimidoyl)phenyl)amino)methyl)azetidine-1-carboxylate]"
20,0.1 to 1,"CCc1ccc(N(CC(C)C)S(=O)(=O)c2ccc(NCC3COC3)c(S(C)(=N)=O)c2)cc1 (stereo not drawn) [compound 54, N-(4-ethylphenyl)-N-isobutyl-3-(S-methylsulfonimidoyl)-4-((oxetan-3-ylmethyl)amino)benzenesulfonamide]"
21,> 1,"CCc1ccc(N(CC(C)C)S(=O)(=O)c2ccc3c(c2)N(CC2CCOCC2)C(=O)C[S+]3[O-])cc1 (stereo not drawn) [compound 4, 1,3-dioxo-4-(tetrahydropyran-4-ylmethyl)-1,2,3,4-tetrahydro-1λ^4-benzo[1,4]thiazine-6-sulfonic acid (4-ethylphenyl)isobutylamide]"
22,> 1,"CCc1ccc(N(CC(C)C)S(=O)(=O)c2ccc(NCC3CCN(C(C)=O)CC3)c(S(C)(=N)=O)c2)cc1 (stereo not drawn) [compound 84, 4-(((1-acetylpiperidin-4-yl)methyl)amino)-N-(4-ethylphenyl)-N-isobutyl-3-(S-methylsulfonimidoyl)benzenesulfonamide]"
23,> 1,"CCc1ccc(N(CC(C)C)S(=O)(=O)c2ccc(N3CCCC4(COC4)C3)c(S(C)(=N)=O)c2)cc1 (stereo not drawn) [compound 109, N-(4-ethylphenyl)-N-isobutyl-3-(S-methylsulfonimidoyl)-4-(2-oxa-6-azaspiro[3.5]nonan-6-yl)benzenesulfonamide]"
24,0.1 to 1,"CCc1ccc(N(CC(C)C)S(=O)(=O)c2ccc(NCC3CC4(COC4)C3)c(S(C)(=N)=O)c2)cc1 (stereo not drawn) [compound 95, 4-(((2-oxaspiro[3.3]heptan-6-yl)methyl)amino)-N-(4-ethylphenyl)-N-isobutyl-3-(S-methylsulfonimidoyl)benzenesulfonamide]"
25,> 1,"CCc1ccc(N(CC(C)C)S(=O)(=O)c2ccc(NCC3CCN(C(=O)OC)C3)c(S(C)(=N)=O)c2)cc1 (stereo not drawn) [compound 94, methyl 3-(((4-(N-(4-ethylphenyl)-N-isobutylsulfamoyl)-2-(S-methylsulfonimidoyl)phenyl)amino)methyl)pyrrolidine-1-carboxylate]"
26,> 1,"CCc1ccc(N(CC(C)C)S(=O)(=O)c2ccc(NCc3nn[nH]n3)c(S(C)(=N)=O)c2)cc1 (stereo not drawn) [compound 118, 4-(((2H-tetrazol-5-yl)methyl)amino)-N-(4-ethylphenyl)-N-isobutyl-3-(S-methylsulfonimidoyl)benzenesulfonamide]"
27,0.1 to 1,"CCc1ccc(N(CC(C)C)S(=O)(=O)c2ccc(NCC3CNC(=O)C3)c(S(C)(=N)=O)c2)cc1 (stereo not drawn) [compound 59, N-(4-ethylphenyl)-N-isobutyl-3-(S-methylsulfonimidoyl)-4-(((5-oxopyrrolidin-3-yl)methyl)amino)benzenesulfonamide]"
28,> 1,"CCc1ccc(N(CC(C)C)S(=O)(=O)c2ccc3c(c2)SC(C)(C)N3CC2CCOCC2)cc1 [compound 73, 2,2-dimethyl-3-(tetrahydropyran-4-ylmethyl)-2,3-dihydrobenzothiazole-6-sulfonic acid (4-ethylphenyl)isobutylamide]"
29,< 0.1,"CCc1ccc(N(CC(C)C)S(=O)(=O)c2ccc(N3CC4(COC4)C3)c(S(C)(=N)=O)c2)cc1 (stereo not drawn) [compound 111, N-(4-ethylphenyl)-N-isobutyl-3-(S-methylsulfonimidoyl)-4-(2-oxa-6-azaspiro[3.3]heptan-6-yl)benzenesulfonamide]"
30,0.1 to 1,"CCc1ccc(N(CC(C)C)S(=O)(=O)c2ccc(OCC3CCOCC3)c(SC)c2)cc1 [compound 25, N-(4-ethylphenyl)-N-isobutyl-3-methylsulfanyl-4-(tetrahydropyran-4-ylmethoxy)benzenesulfonamide]"
